Consider one molecule from patent publication US5166214A, “Use of imidazoles for the treatment of atherosclerosis” (priority 1990, dated 1992).

A word on the IC50: it is the point on the concentration scale where inhibition reaches its midpoint.

Assay [1] relates to murine macrophage-like cell line J774.A1. Kind of assay: Inhibition of cholesterol esterification in mammalian cells (macrophage assay). As to conditions: J774.A1 macrophages loaded with ac-LDL, 14C-oleic acid; read-out: Cholesterol Esterification IC50. It is filed as cell-based. An outline of the steps: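 Murine J774.A1 macrophages at 37 °C received 34 μg acetylated human LDL in 10% FBS-DMEM from 24 h, compound in DMSO at 41 h, then a 0.1 mM 14C-oleic acid–BSA pulse from 43 to 45 h. Labelled cholesteryl ester was separated by TLC, counted and normalised to Lowry protein.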

In assay [2] the test system is hypercholesterolemic (cholesterol-fed) hamsters. As to the kind of experiment: Antihypercholesterolemic activity in cholesterol-fed hamsters. It is filed as in vivo, hamster. As to conditions: two weeks; for Serum Cholesterol, Treated: mean ± SEM, n = 9-10; for Serum Cholesterol Decrease: vs control. The method, then: C. Assay of Antihypercholesterolemic Activity in Cholesterol-fed Hamsters
Inhibition of ACAT activity in the gut reduces the absorption of cholesterol in cholesterol-fed animals. Hamsters weighing approximately 100 g, were maintained on a diet supplemented with 0.8% cholesterol. The treatment group received 1-100 mg/kg/day, p.o., of the test compound dissolved in 500 μl of corn oil for a period of two weeks. The control group were pair-fed to the treatment group and were dosed with 500 μl of the corn oil vehicle. At sacrifice, the hamsters were anesthetized with CO2 and exsanguinated via cardiac puncture. Total serum cholesterol was determined on a Du Pont aca® IV. The data were expressed in terms of mg cholesterol per 100 ml of serum (mg %).

For the molecule `CCCCCCCN(CCCCCSc1nc(-c2ccccc2)c(-c2ccccc2)[nH]1)C(=O)Nc1ccc(F)cc1F` [Example 1, N'-(2,4-difluorophenyl)-N-[5-(4,5-diphenyl-1H-imidazol-2-ylthio)pentyl]-N-heptylurea], the IC50 in assay [1] was 1000 nM. Also, the “Serum Cholesterol, Treated” value stood at 295 ± 12 mg % in assay [2] (1 mg/kg/day p.o., control 400 ± 25); 279 ± 16 mg % in assay [2] (3 mg/kg/day p.o., control 381 ± 17); 201 ± 12 mg % in assay [2] (10 mg/kg/day p.o., control 371 ± 7); 197 ± 11 mg % in assay [2] (30 mg/kg/day p.o., control 368 ± 15); 62 ± 8 mg % in assay [2] (100 mg/kg/day p.o., control 400 ± 17). The “Serum Cholesterol Decrease” value in assay [2] (1 mg/kg/day p.o.) turned out to be 26%; in assay [2] (3 mg/kg/day p.o.), 27%; in assay [2] (10 mg/kg/day p.o.), 46%; in assay [2] (30 mg/kg/day p.o.) it was 46%; in assay [2] (100 mg/kg/day p.o.) it was 60%.
